Measured values: publication PMC10787893, “Expression and characterization of the new antimicrobial peptide AP138L-arg26 anti Staphylococcus aureus” (Applied Microbiology and Biotechnology, 2024)
Values after ≈ are worked out from the molar mass of the structure shown. Read-outs that look alike come from different tables or passages of the source. Bridge positions count the residues as written; N and C are the ends. Peptide text beside a SMILES is read from it.

Assays:
S. aureus CVCC 546 [1] = assay: Salt stability, MIC after treatment; assay type: physicochemical, Staphylococcus aureus; conditions: then MIC assay
S. aureus CVCC 546 [2] = assay: Growth curve of S. aureus; assay type: cell-based, Staphylococcus aureus; conditions: AP138L-arg26 8 µg/mL (2 × MIC), ceftiofur sodium 0.25 µg/mL (1/8 MIC), alone or combined; 1 × 10^5 CFU/mL
Protocol: Samples were taken during the logarithmic growth of S. aureus and diluted to 1 × 10^5 CFU/mL (Delpech et al. [2019]). Different concentrations of AP138L-arg26, ceftiofur sodium, or a combination of them with an equal volume of bacteria were added to a 96-well microplate. The growth curves were recorded using a fully automatic growth curve recording instrument.

ICR mice = assay: Acute toxicity in mice; assay type: in vivo, mouse
Protocol: AP138L-arg26 was administrated by intraperitoneal injection (n = 4 per group, 10 mg/kg, body weight 25 g) every day for 1 week (Shi et al. [2022]). After 7 days, the mice were euthanized to collect anticoagulant whole-blood and tissues (liver, spleen, kidney, and lung), which were used for whole blood and biochemical detection, or tissue sections (hematoxylin-eosin (HE) staining), respectively.

S. aureus CVCC 546 [3] = assay: Artificial intestinal juice (trypsin) stability, MIC after treatment; assay type: in vitro ADME, Staphylococcus aureus; conditions: then MIC assay
S. aureus CVCC 546 [4] = conditions: for FIC: FIC = MICc/MICa
Protocol: The synergistic effects of AP138L-arg26 with different antibiotics were evaluated using a checkerboard assay. The synergistic effect was calculated using the FICI as follows: FICI = FIC of AP138L-arg26 + FIC of antibiotic; FIC = MICc/MICa, where MICc is the MIC of the peptide and antibiotic in combination, and MICa is the MIC of the peptide/antibiotic alone (Blier et al. [2010]). Three parallel experiments were performed for each group. The efficacy of combination therapy was defined as FICI ≤ 0.5, 0.5 < FICI ≤ 1, 1 < FICI ≤ 4, and FICI > 4 indicating synergy, addition, no difference, and antagonism, respectively.

S. aureus CVCC 546 [5] = assay: pH stability, MIC after treatment; assay type: physicochemical, Staphylococcus aureus
S. aureus CVCC 546 [6] = assay: Serum stability, MIC after treatment; assay type: in vitro ADME, Staphylococcus aureus; conditions: then MIC
Source text: Table 4 The stability of AMPs in different environments | column: MIC

S. aureus CVCC 546 [7] = assay: Intracellular ATP determination; assay type: cell-based, Staphylococcus aureus
Source text: As ATP is the most direct source of energy for living organisms, the effect of antimicrobial peptides on ATP was explored with an ATP assay kit (Beyotime, Shanghai, China). […] The luminescence was detected using an Infinite M200 Microplate reader (Tecan, Luminescence signals).

[8] = test system: selected standard and clinical Gram-positive bacteria; assay: MIC/MBC summary over the panel of strains; assay type: cell-based, S. aureus, S. epidermidis, S. dysgalactiae, S. agalactiae
Protocol: To determine the MIC values of AP138L-arg26, we used the broth microdilution technique as previously described (Andrews. [2001]; Wiegand et al. [2008]). In brief, AP138L-arg26 peptide were diluted from 1280 to 2.5 µg/mL and added to a 96-cells plate with 10 µL per well. The bacteria in the logarithmic stage were diluted to 10^5 CFU/mL with 90 µL per well. […] The MBC method was also based on the CLSI 2021 guidelines.

S. aureus [9] = assay: Intracellular LDH activity; assay type: cell-based, Staphylococcus aureus; conditions: 6 h, treated cells/the control, n = 3
Protocol: As disruption of the cell membrane structure leads to the release of LDH from the cytoplasm into the culture medium, the detection of LDH in bacteria can further reveal the antibacterial mechanism (Shi et al. [2022]). Briefly, S. aureus cells were co-incubated with AP138L-arg26 for 6 h. Later, the pellets were collected and sonicated (3 s/10 s, 30 times). The intracellular LDH activity was detected using an Infinite M200 Microplate reader (Tecan, Luminescence signals). The calculated results of LDH% = treated cells/the control.

S. aureus CVCC 546 [10] = assay: Thermal stability, MIC after treatment; assay type: physicochemical, Staphylococcus aureus
S. aureus [11] = assay: Membrane fluidity assay, Laurdan GP; assay type: cell-based, Staphylococcus aureus; conditions: 2 × MIC; 10 µM Laurdan; untreated 0.22
Protocol: The final concentration of 10 µM Laurdan was used to detect the effect of AP138L-arg26 on bacterial cell membrane fluidity (Shi et al. [2022]). Briefly, (1) co-incubation of bacteria with Laurdan; (2) the stained bacteria are co-incubated with the peptide; (3) spectrophotometer (Tecan, Männedorf, Switzerland) detection. The calculation formula: generalized polarization (GP) = (I435 − I490)/(I435 + I490).

CC[C@H](C)[C@@H]1NC(=O)[C@H](CO)NC(=O)[C@H](CCCCN)NC(=O)[C@@H]2CSSC[C@@H](C(=O)N[C@@H](Cc3ccc(O)cc3)C(=O)O)NC(=O)[C@H](CCCCN)NC(=O)[C@@H]3CSSC[C@H](NC(=O)[C@H](CCCNC(=N)N)NC(=O)[C@H](CC(C)C)NC(=O)[C@H](CC(=O)O)NC(=O)[C@H](CC(=O)O)NC(=O)[C@H](CCC(=O)O)NC(=O)[C@H](CO)NC(=O)[C@H](Cc4c[nH]c5ccccc45)NC(=O)[C@@H]4CCCN4C(=O)CNC(=O)[C@H](CC(N)=O)NC(=O)[C@@H](NC(=O)CNC(=O)[C@H](Cc4ccccc4)NC(=O)CN)CSSC[C@H](NC(=O)[C@H](Cc4ccc(O)cc4)NC(=O)CNC(=O)CNC(=O)[C@H](CCCNC(=N)N)NC(=O)[C@H](Cc4ccc(O)cc4)NC(=O)CNC(=O)[C@H](CCCCN)NC1=O)C(=O)N[C@@H](C)C(=O)N[C@@H](CCCCN)C(=O)NCC(=O)NCC(=O)N[C@@H](Cc1ccccc1)C(=O)N[C@@H](C(C)C)C(=O)N3)C(=O)N[C@@H](Cc1c[nH]cn1)C(=O)N[C@@H](CCCNC(=N)N)C(=O)N[C@@H](Cc1c[nH]cn1)C(=O)N2 [AP138L-arg26] (H-GFGCNGPWSEDDLRCHRHCKSIKGYRGGYCAKGGFVCKCY-OH; disulfide 4-30, 15-37, 19-39; N-terminus and C-terminus assumed)
MIC, CaCl2 (2.5 mM) (S. aureus CVCC 546 [1]; peptide incubated with 2.5 mM CaCl2 for 1 h at 37 °C): 8 µg/mL | MIC, KCl (2.5 mM) (S. aureus CVCC 546 [1]; peptide incubated with 2.5 mM KCl for 1 h at 37 °C): 8 µg/mL | MIC, MgCl2 (2.5 mM) (S. aureus CVCC 546 [1]; peptide incubated with 2.5 mM MgCl2 for 1 h at 37 °C): 16 µg/mL | MIC, CaCl2 (5 mM) (S. aureus CVCC 546 [1]; peptide incubated with 5 mM CaCl2 for 1 h at 37 °C): 16 µg/mL | MIC, KCl (5 mM) (S. aureus CVCC 546 [1]; peptide incubated with 5 mM KCl for 1 h at 37 °C): 8 µg/mL | MIC, MgCl2 (5 mM) (S. aureus CVCC 546 [1]; peptide incubated with 5 mM MgCl2 for 1 h at 37 °C): 16 µg/mL | MIC, NaCl (50 mM) (S. aureus CVCC 546 [1]; peptide incubated with 50 mM NaCl for 1 h at 37 °C): 8 µg/mL | MIC, NaCl (100 mM) (S. aureus CVCC 546 [1]; peptide incubated with 100 mM NaCl for 1 h at 37 °C): 8 µg/mL | MIC, NaCl (150 mM) (S. aureus CVCC 546 [1]; peptide incubated with 150 mM NaCl for 1 h at 37 °C): 8 µg/mL | MIC, NaCl (200 mM) (S. aureus CVCC 546 [1]; peptide incubated with 200 mM NaCl for 1 h at 37 °C): 16 µg/mL | MIC, NaCl (300 mM) (S. aureus CVCC 546 [1]; peptide incubated with 300 mM NaCl for 1 h at 37 °C): 16 µg/mL | MIC, CaCl2 ([…]) (S. aureus CVCC 546 [1]; peptide incubated with […] CaCl2 for 1 h at 37 °C): 8 µg/mL | MIC, KCl ([…]) (S. aureus CVCC 546 [1]; peptide incubated with […] KCl for 1 h at 37 °C): 8 µg/mL | MIC, MgCl2 ([…]) (S. aureus CVCC 546 [1]; peptide incubated with […] MgCl2 for 1 h at 37 °C): 8 µg/mL | effect on the growth of S. aureus CVCC 546 (S. aureus CVCC 546 [2]): little effect on the growth | histology (HE) of heart, kidney, spleen, lung and liver (ICR mice; 10 mg/kg i.p. daily for a week): no hyperemia, bleeding, hyperplasia, or other lesions | whole blood detection indexes and biochemical indexes compared with the control group (ICR mice; 10 mg/kg i.p. daily for a week): no significant differences | difference in biochemical index versus control (ICR mice; 10 mg/kg i.p. for 1 week): < 4% | difference in whole blood detection indexes versus control (ICR mice; 10 mg/kg i.p. for 1 week): < 4.5% | MIC, Intestinal juice (0.25 h) (S. aureus CVCC 546 [3]; peptide in artificial intestinal juice for 0.25 h): > 64 µg/mL | MIC, Intestinal juice (0.5 h) (S. aureus CVCC 546 [3]; peptide in artificial intestinal juice for 0.5 h): > 64 µg/mL | MIC, Intestinal juice (1 h) (S. aureus CVCC 546 [3]; peptide in artificial intestinal juice for 1 h): > 64 µg/mL | MIC, Intestinal juice (2 h) (S. aureus CVCC 546 [3]; peptide in artificial intestinal juice for 2 h): > 64 µg/mL | FIC (S. aureus CVCC 546 [4]; combination AP138L-arg26-Streptomycin sulfate): 0.5 | FIC (S. aureus CVCC 546 [4]; combination AP138L-arg26-ampicillin): 1 | FIC (S. aureus CVCC 546 [4]; combination AP138L-arg26-ceftiofur sodium): 0.0625 | MICa (S. aureus CVCC 546 [4]; MIC of peptide/antibiotic alone, three parallel experiments): 4 µg/mL | MICc (S. aureus CVCC 546 [4]; in combination AP138L-arg26-Streptomycin sulfate): 2 µg/mL | MICc (S. aureus CVCC 546 [4]; in combination AP138L-arg26-ampicillin): 4 µg/mL | MICc (S. aureus CVCC 546 [4]; in combination AP138L-arg26-ceftiofur sodium): 0.25 µg/mL | antimicrobial activity after different pH values (2–10) (S. aureus CVCC 546 [5]; pH 2–10, 1 h, MIC assay): unaffected | MIC, pH 2 (S. aureus CVCC 546 [5]; peptide incubated at pH 2 for 1 h at 37 °C, then MIC assay): 8 µg/mL | MIC, pH 4 (S. aureus CVCC 546 [5]; peptide incubated at pH 4 for 1 h at 37 °C, then MIC assay): 16 µg/mL | MIC, pH 6 (S. aureus CVCC 546 [5]; peptide incubated at pH 6 for 1 h at 37 °C, then MIC assay): 16 µg/mL | MIC, pH 8 (S. aureus CVCC 546 [5]; peptide incubated at pH 8 for 1 h at 37 °C, then MIC assay): 8 µg/mL | MIC, pH 10 (S. aureus CVCC 546 [5]; peptide incubated at pH 10 for 1 h at 37 °C, then MIC assay): 16 µg/mL | MIC, 25% serum (0.5 h) (S. aureus CVCC 546 [6]; peptide in 25% serum for 0.5 h): 8 µg/mL (≈ 1.8 µM) | MIC, 25% serum (1 h) (S. aureus CVCC 546 [6]; peptide in 25% serum for 1 h): 16 µg/mL (≈ 3.59 µM) | MIC, 25% serum (2 h) (S. aureus CVCC 546 [6]; peptide in 25% serum for 2 h): 16 µg/mL (≈ 3.59 µM) | MIC, 25% serum (4 h) (S. aureus CVCC 546 [6]; peptide in 25% serum for 4 h): 8 µg/mL (≈ 1.8 µM) | MIC, 25% serum (6 h) (S. aureus CVCC 546 [6]; peptide in 25% serum for 6 h): 16 µg/mL (≈ 3.59 µM) | MIC, 25% serum (8 h) (S. aureus CVCC 546 [6]; peptide in 25% serum for 8 h): 8 µg/mL (≈ 1.8 µM) | MIC, 50% serum (0.5 h) (S. aureus CVCC 546 [6]; peptide in 50% serum for 0.5 h): 8 µg/mL (≈ 1.8 µM) | MIC, 50% serum (1 h) (S. aureus CVCC 546 [6]; peptide in 50% serum for 1 h): 8 µg/mL (≈ 1.8 µM) | MIC, 50% serum (2 h) (S. aureus CVCC 546 [6]; peptide in 50% serum for 2 h): 8 µg/mL (≈ 1.8 µM) | MIC, 50% serum (4 h) (S. aureus CVCC 546 [6]; peptide in 50% serum for 4 h): 8 µg/mL (≈ 1.8 µM) | MIC, 50% serum (6 h) (S. aureus CVCC 546 [6]; peptide in 50% serum for 6 h): 8 µg/mL (≈ 1.8 µM) | MIC, 50% serum (8 h) (S. aureus CVCC 546 [6]; peptide in 50% serum for 8 h): 8 µg/mL (≈ 1.8 µM) | intracellular ATP, times higher than the untreated group (S. aureus CVCC 546 [7]; 1 × MIC): 7.6 times | intracellular ATP, times higher than the untreated group (S. aureus CVCC 546 [7]; 2 × MIC): 8.2 times | intracellular ATP, times higher than the untreated group (S. aureus CVCC 546 [7]; 4 × MIC (maximum)): 8.5 times | MIC against Streptococcus ([8]; Streptococcus strains): 4 µg/mL (≈ 0.898 µM) | MBC relative to MIC ([8]; over the strains of Table 2): around fourfold higher than MICs | MIC against S. aureus ([8]; range over S. aureus strains): 2 to 16 µg/mL | MIC against selected standard and clinical Gram-positive bacteria ([8]; range over all strains of Table 2): 2 to 16 µg/mL | MIC against selected standard and clinical Gram-positive bacteria ([8]; range over all strains, converted from µg/mL): 0.45 to 3.6 µM | LDH activity % (S. aureus [9]; 1 × MIC): 24% | LDH activity % (S. aureus [9]; 2 × MIC): 16% | LDH activity % (S. aureus [9]; 4 × MIC): 16% | MIC, Heat (20 °C) (S. aureus CVCC 546 [10]; peptide incubated at 20 °C for 1 h, then MIC assay): 8 µg/mL (≈ 1.8 µM) | MIC, Heat (40 °C) (S. aureus CVCC 546 [10]; peptide incubated at 40 °C for 1 h, then MIC assay): 8 µg/mL (≈ 1.8 µM) | MIC, Heat (60 °C) (S. aureus CVCC 546 [10]; peptide incubated at 60 °C for 1 h, then MIC assay): 8 µg/mL (≈ 1.8 µM) | MIC, Heat (80 °C) (S. aureus CVCC 546 [10]; peptide incubated at 80 °C for 1 h, then MIC assay): 8 µg/mL (≈ 1.8 µM) | MIC, Heat (100 °C) (S. aureus CVCC 546 [10]; peptide incubated at 100 °C for 1 h, then MIC assay): > 64 µg/mL | MIC, Control (without treatment) (S. aureus CVCC 546 [10]; peptide without treatment, reference value of the stability tests): 8 µg/mL (≈ 1.8 µM) | Laurdan GP (S. aureus [11]): 0.18
